Results from PMC7762955, “Antibiotic binding releases autoinhibition of the TipA multidrug-resistance transcriptional regulator” (The Journal of Biological Chemistry, 2020).

Tests used:
[1] = molecular target: T1, F123A/F126A mutant of TipAL (Streptomyces lividans, UniProt P0A4T9, F123A/F126A); test: FPA, thiostrepton-induced activation of F123A/F126A TipAL-ptipA binding; type: biochemical; settings: thiostrepton 1:1, 15 min
Protocol: (§1) FPAs were performed in buffer consisting of 20 mM Tris-HCl, pH 7.5, 200 mM NaCl and 5% (v/v) glycerol at 298 K using a SpectraMax M5 microplate reader system (Molecular Devices, San Jose, CA, USA). The wavelengths of fluorescence excitation and emission were 486 and 525 nm, respectively. 26-bp dsDNA from the −10 and −35 regions of the tipA, mta, and skgA promoters with the sequences […], […], and […] were synthesized with a 5′-carboxyfluorescein label for the respective assays with TipAL, Mta, and SkgA proteins. For assays with thiostrepton supplementation, proteins were incubated with thiostrepton (Sigma) at a 1:1 ratio for 15 min prior to mixing with DNA in wells. Each well of a 384-well plate contained 10 nM of a fluorescently labeled DNA probe and different amounts of proteins with a final volume of 80 μl. DNA-free controls were included, and three replicates were performed for each reaction for each assay. The fluorescence polarization ΔP (in mP units) was calculated and fitted according to a one-site specific binding model using GraphPad Prism7 (GraphPad Software) with the function ΔP = ΔPmax[protein]/(Kd + [protein]).

[2] = molecular target: T2, F123A mutant of TipAL (Streptomyces lividans, UniProt P0A4T9, F123A); test: FPA, thiostrepton-induced activation of F123A TipAL-ptipA binding; type: biochemical; settings: thiostrepton 1:1, 15 min
Protocol: as §1

[3] = system: TipAL; test: FPA, thiostrepton-induced activation of TipAL-ptipA binding; type: biochemical, Streptomyces lividans; settings: WT TipAL with vs without thiostrepton (1:1, 15 min)
Protocol: as §1

[4] = molecular target: WT TipAL (Streptomyces lividans, UniProt P0A4T9); test: Isothermal titration calorimetry, thiopeptide binding to WT TipAL
Protocol: (§2) The ITC binding studies of the nosiheptide (Sigma) with WT TipAL and its mutants were performed using an ITC200 (GE Healthcare) at 298 K using a previously described protocol ([38]), with 60 μl of nosiheptide solution in the injector cell and 260 μl of protein solution in the sample cell. The injection volumes were set to […] for all experiments, and two consecutive injections were separated by 2 min to reset the baseline. The control experiments, in which nosiheptide was titrated against the buffer, were also conducted, and the results were subtracted from the results of each standard experiment for adjustments. Three replicates were performed for each reaction. The final data were processed with a one-site fitting model using Microcal-Origin (OriginLab Corp, Northampton, MA, USA).

[5] = molecular target: I112A/F123A mutant of TipAL (Streptomyces lividans, UniProt P0A4T9, F123A/I112A); test: Isothermal titration calorimetry, thiopeptide binding to I112A/F123A TipAL
Protocol: as §2

[6] = molecular target: T1, F123A/F126A mutant of TipAL; test: Isothermal titration calorimetry, thiopeptide binding to F123A/F126A TipAL
Protocol: as §2

[7] = molecular target: T2, F123A mutant of TipAL; test: Isothermal titration calorimetry, thiopeptide binding to F123A TipAL
Protocol: as §2

[8] = molecular target: tipA promoter DNA (ptipA); test: Fluorescence polarization assay, tipA promoter DNA binding; parameters: species or system Streptomyces lividans; settings: apo, no antibiotic; FPA, 10 nM 5'-carboxyfluorescein-labeled 26-bp dsDNA, 20 mM Tris-HCl pH 7.5, 200 mM NaCl, 5% glycerol, 298 K; ex 486/em 525 nm; one-site binding fit; three replicates; n.b. = printed in picture, not defined; read-out: Kd, affinity with the tipA promoter DNA (ptipA)
Protocol: Fluorescence polarization assays (FPAs) were performed to test the structure-based hypothesis that α6–α7 plays a key role in communication between the ligand-binding and DNA-binding regions. […] Parallel experiments were also performed for Mta and SkgA proteins, and consistent results were obtained.
as §1

[9] = parameters: method as in PMID 11669632, PMID 14985361; settings: ref [19], [26]; cited from earlier work
[10] = molecular target: T3, TipAH7 (Streptomyces lividans, UniProt P0A4T9 1-140); test: fluorescence polarization; no thiostrepton; 20 mM Tris-HCl pH 7.5, 200 mM NaCl, 5% (v/v) glycerol, 298 K; 10 nM labeled DNA; settings: protein: recombinant; tags: His6 (pET-28a); chain copies: 2; label: 5'-carboxyfluorescein; blunt
T3 sequence: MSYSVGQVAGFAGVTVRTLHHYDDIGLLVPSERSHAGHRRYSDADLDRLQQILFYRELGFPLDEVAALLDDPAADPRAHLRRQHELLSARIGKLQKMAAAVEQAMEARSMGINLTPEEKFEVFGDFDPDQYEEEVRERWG

[11] = molecular target: T4, TipAN (Streptomyces lividans, UniProt P0A4T9 1-109); test: as above; settings: protein: recombinant; tags: His6 (pET-28a); chain copies: 2; label: 5'-carboxyfluorescein; blunt
T4 sequence: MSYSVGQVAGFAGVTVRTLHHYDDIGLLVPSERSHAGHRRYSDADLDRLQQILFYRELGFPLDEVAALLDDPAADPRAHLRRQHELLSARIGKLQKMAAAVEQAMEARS

[12] = molecular target: T5, TipAL F123A/F126A (Streptomyces lividans, UniProt P0A4T9 1-253, F123A;F126A); test: fluorescence polarization; thiostrepton 1:1; 20 mM Tris-HCl pH 7.5, 200 mM NaCl, 5% (v/v) glycerol, 298 K; 10 nM labeled DNA; settings: protein: recombinant; tags: His6 (pET-28a); chain copies: 2; label: 5'-carboxyfluorescein; blunt
T5 sequence: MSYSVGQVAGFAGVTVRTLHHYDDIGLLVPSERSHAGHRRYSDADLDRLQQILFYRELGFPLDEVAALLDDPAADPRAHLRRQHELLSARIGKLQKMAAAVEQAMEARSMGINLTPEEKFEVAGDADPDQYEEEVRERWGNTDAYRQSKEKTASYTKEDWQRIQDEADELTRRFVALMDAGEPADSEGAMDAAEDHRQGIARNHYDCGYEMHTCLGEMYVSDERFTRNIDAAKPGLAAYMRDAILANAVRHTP

[13] = molecular target: T6, TipAL (Streptomyces lividans, UniProt P0A4T9 1-253); test: as above; settings: protein: recombinant; tags: His6 (pET-28a); chain copies: 2; label: 5'-carboxyfluorescein; blunt
T6 sequence: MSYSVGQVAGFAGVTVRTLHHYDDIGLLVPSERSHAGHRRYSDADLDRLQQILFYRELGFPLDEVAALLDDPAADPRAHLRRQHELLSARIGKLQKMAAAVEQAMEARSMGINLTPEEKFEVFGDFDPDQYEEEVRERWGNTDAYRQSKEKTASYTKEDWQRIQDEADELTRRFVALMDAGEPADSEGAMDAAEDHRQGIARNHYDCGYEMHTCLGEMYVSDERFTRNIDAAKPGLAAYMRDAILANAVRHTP

[14] = molecular target: T7, TipAL F123A (Streptomyces lividans, UniProt P0A4T9 1-253, F123A); test: as above; settings: protein: recombinant; tags: His6 (pET-28a); chain copies: 2; label: 5'-carboxyfluorescein; blunt
T7 sequence: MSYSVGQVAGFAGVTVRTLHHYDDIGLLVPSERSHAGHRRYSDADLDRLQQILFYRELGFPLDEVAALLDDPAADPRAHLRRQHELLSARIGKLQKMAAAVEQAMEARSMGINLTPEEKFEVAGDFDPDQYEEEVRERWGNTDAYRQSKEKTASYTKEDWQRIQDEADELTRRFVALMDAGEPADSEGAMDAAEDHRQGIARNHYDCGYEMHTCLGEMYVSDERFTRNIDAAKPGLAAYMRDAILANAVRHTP

[15] = molecular target: T8, TipAL I112A/F123A (Streptomyces lividans, UniProt P0A4T9 1-253, I112A;F123A); test: as above; settings: protein: recombinant; tags: His6 (pET-28a); chain copies: 2; label: 5'-carboxyfluorescein; blunt
T8 sequence: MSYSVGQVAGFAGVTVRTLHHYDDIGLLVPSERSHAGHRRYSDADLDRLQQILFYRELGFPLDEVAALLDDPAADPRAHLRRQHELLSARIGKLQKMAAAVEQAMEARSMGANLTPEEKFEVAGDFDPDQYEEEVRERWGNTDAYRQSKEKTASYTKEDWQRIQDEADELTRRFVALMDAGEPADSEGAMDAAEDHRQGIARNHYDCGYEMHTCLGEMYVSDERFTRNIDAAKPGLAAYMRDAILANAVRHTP

C=C(NC(=O)C(=C)NC(=O)c1csc(C2=N[C@@H]3c4csc(n4)[C@H]4NC(=O)c5csc(n5)[C@H]([C@](C)(O)[C@@H](C)O)NC(=O)[C@H]5CSC(=N5)/C(=C/C)NC(=O)[C@H]([C@@H](C)O)NC(=O)c5csc(n5)[C@]3(CC2)NC(=O)[C@H](C)NC(=O)C(=C)NC(=O)[C@H](C)NC(=O)[C@H]([C@@H](C)CC)N[C@@H]2C=Cc3c([C@H](C)O)cc(nc3[C@H]2O)C(=O)O[C@@H]4C)n1)C(N)=O [thiostrepton]
rise in ptipA binding in the presence of thiostrepton [1]: did not show such a significant rise | rise in ptipA binding in the presence of thiostrepton [2]: did not show such a significant rise | increase in ptipA affinity of TipAL by thiostrepton binding [3]: ~12.6 fold

C=C(NC(=O)c1csc(-c2nc3c(cc2O)-c2nc(cs2)C(=O)NC(C(C)O)C(=O)N/C(=C\C)c2nc(cs2)C(=O)NC2CC(O)C(=O)OCc4cccc5[nH]c(c(C)c45)C(=O)SCC(NC(=O)c4csc2n4)c2nc-3cs2)n1)C(N)=O (stereo not drawn) [thiopeptide, nosiheptide]
Kd [4]: 5230 ± 840 nM | Kd [5]: 7510 ± 870 nM | thiopeptide-binding affinity compared with WT and F123A ([5]; I112A/F123A vs WT and F123A TipAL, ITC): without a significant difference | Kd [6]: 13200 ± 1360 nM | decrease in thiopeptide affinity vs WT ([6]; F123A/F126A vs WT TipAL, ITC): ~2.5 fold | Kd [7]: 7120 ± 950 nM | decrease in thiopeptide affinity vs WT ([7]; F123A vs WT TipAL, ITC): ~1.4 fold

B1: TipAN: N terminus of TipAL, residues 1–109 (protein)
chain: MSYSVGQVAGFAGVTVRTLHHYDDIGLLVPSERSHAGHRRYSDADLDRLQQILFYRELGFPLDEVAALLDDPAADPRAHLRRQHELLSARIGKLQKMAAAVEQAMEARS
modifications: left off: His6, end not stated, state not stated
Kd [8]: 44 ± 5.1 nM | transcriptional activity in the absence of the TipAS domain [9]: constitutively transcriptionally active

B2: ptipA (dsDNA)
DNA 1: TTGCACCTCACGTCACGTGAGGAGGC
DNA 2: GCCTCCTCACGTGACGTGAGGTGCAA
Kd [10]: 318 ± 58.5 nM | Kd [11]: 44 ± 5.1 nM | Kd [12]: 317 ± 51.4 nM | Kd [13]: 30.2 ± 3.7 nM | Kd [14]: 228 ± 25.9 nM | Kd [15]: 685 ± 97.9 nM
